Results published in ChEMBL document CHEMBL1201862, “PubChem BioAssay data set” (2004).
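A five-concentration, 48-hour dose response in 96-well plates underlies each endpoint, interpolated linearly between surrounding concentrations. The concentration for 50% growth inhibition is given as GI50.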 Calls of active or inactive are those of the source. Rule as the data show it: active = GI50 up to about 1.1 µM and inactive = higher.

What was measured:
Test in all cases: growth of human tumour cells (NCI), 48 h
[1] = test system: A498
[2] = test system: COLO 205
[3] = test system: DMS-273
[4] = test system: HL-60
[5] = test system: HOP-18
[6] = test system: HOP-62
[7] = test system: HOP-92
[8] = test system: K562
[9] = test system: KM12
[10] = test system: LOX IMVI
[11] = test system: NCI-H460
[12] = test system: NCI-H522
[13] = test system: OVCAR-3
[14] = test system: RPMI-8226
[15] = test system: SK-MEL-2
[16] = test system: SK-MEL-5
[17] = test system: SK-OV-3
[18] = test system: UACC-257
[19] = test system: UO-31
[20] = test system: MDA-N

SMILES	GI50 [1]	GI50 [2]	GI50 [3]	GI50 [4]	GI50 [5]	GI50 [6]	GI50 [7]	GI50 [8]	GI50 [9]	GI50 [10]	GI50 [11]	GI50 [12]	GI50 [13]	GI50 [14]	GI50 [15]	GI50 [16]	GI50 [17]	GI50 [18]	GI50 [19]	GI50 [20]
C#CCn1c(=O)c(C#N)c(O)c2cc3ccccc3nc21	> 100 µM (inactive)	> 100 µM (inactive)	> 100 µM (inactive)	> 100 µM (inactive)	> 100 µM (inactive)	> 100 µM (inactive)	> 100 µM (inactive)	> 100 µM (inactive)	> 100 µM (inactive)	> 100 µM (inactive)	> 100 µM (inactive)	> 100 µM (inactive)	> 100 µM (inactive)	> 100 µM (inactive)	> 100 µM (inactive)	> 100 µM (inactive)	> 100 µM (inactive)	> 100 µM (inactive)	> 100 µM (inactive)	–
COc1c2c(c(O)c3c4c(c(C)cc13)C1OC3(C(OC)OC5CC(C)(O)C(OC6CC(C)(O)C(O)C(C)O6)C(C)O5)OC1C(OC)(O4)C31CO1)C(=O)C(O)CC2OC1CC(C)(O)C(OC(C)=O)C(C)O1 (stereo unspecified)	< 0.01 µM (active)	< 0.01 µM (active)	< 0.01 µM (active)	< 0.01 µM (active)	< 0.01 µM (active)	< 0.01 µM (active)	< 0.01 µM (active)	< 0.01 µM (active)	< 0.01 µM (active)	< 0.01 µM (active)	< 0.01 µM (active)	< 0.01 µM (active)	< 0.01 µM (active)	< 0.01 µM (active)	< 0.01 µM (active)	< 0.01 µM (active)	< 0.01 µM (active)	< 0.01 µM (active)	0.0356 µM (active)	–
CCCCC(NC(=O)CC)C(=O)O (stereo unspecified)	> 100 µM (inactive)	> 100 µM (inactive)	> 100 µM (inactive)	> 100 µM (inactive)	> 100 µM (inactive)	> 100 µM (inactive)	> 100 µM (inactive)	> 100 µM (inactive)	> 100 µM (inactive)	> 100 µM (inactive)	> 100 µM (inactive)	> 100 µM (inactive)	> 100 µM (inactive)	> 100 µM (inactive)	> 100 µM (inactive)	> 100 µM (inactive)	> 100 µM (inactive)	> 100 µM (inactive)	> 100 µM (inactive)	–
COC(=O)C1OC(Oc2cc(O)c3c(=O)cc(-c4ccc(O)cc4)oc3c2)C(O)C(O)C1O (stereo unspecified)	> 100 µM (inactive)	> 100 µM (inactive)	> 100 µM (inactive)	> 100 µM (inactive)	> 100 µM (inactive)	> 100 µM (inactive)	> 100 µM (inactive)	> 100 µM (inactive)	> 100 µM (inactive)	> 100 µM (inactive)	> 100 µM (inactive)	> 100 µM (inactive)	> 100 µM (inactive)	> 100 µM (inactive)	> 100 µM (inactive)	> 100 µM (inactive)	> 100 µM (inactive)	> 100 µM (inactive)	> 100 µM (inactive)	–
Cc1c2cc[n+](C)cc2c(C)c2c1[nH]c1ccc(O)cc12 [ELLIPTINIUM ACETATE]	52.5 µM (inactive)	21.8 µM (inactive)	11.7 µM (inactive)	19 µM (inactive)	14.3 µM (inactive)	4.06 µM (inactive)	19.3 µM (inactive)	16.9 µM (inactive)	2.53 µM (inactive)	31 µM (inactive)	0.228 µM (active)	4.31 µM (inactive)	23.9 µM (inactive)	36.7 µM (inactive)	66.2 µM (inactive)	7.89 µM (inactive)	46.5 µM (inactive)	64 µM (inactive)	17.7 µM (inactive)	47.8 µM (inactive)
